Experimental data taken from patent publication US12318452B2, “Degraders of WEE1 kinase” (DANA-FARBER CANCER INSTITUTE, INC., priority 2018, dated 2025).

Tests used:
Wee1 [1] = target: T1, Wee1 (Homo sapiens, UniProt P30291); experiment: LanthaScreen FRET-based biochemical binding assay for Wee1; details: LanthaScreen Binding activity assay; average of two replicates ± SD
Description: (§1) LanthaScreen™ assays were conducted for Wee1 in a 10-point dose response as performed in the commercial assay service by Life Technologies™. Z′-LYTE™ assays were conducted for PLK1 as performed in the commercial assay service by Life Technologies™ in a 10-point dose response using Km ATP concentrations.

MOLT4 cells = experiment: Cell cycle analysis by propidium iodide staining; type: cell-based
Description: MOLT4 cells were plated at 1.5 million cells per well in a 6-well plate, with 3 mL of media per well. Immediately after plating, cells were treated with the indicated concentrations of the indicated compound. At the indicated time points, cells were collected by transferring each well to a 15 mL conical, centrifuging (1000 rpm for 3 min), and then washing the cell pellet 3× with cold PBS. Cell pellets were then fixed with 1 mL cold 80% ethanol in PBS at 4° C. overnight. The cell pellets were then washed by adding 1 mL of PBS and then centrifuging (1500 rpm for 5 minutes), followed by aspiration of the PBS/ethanol mix. Cells were resuspended in cell cycle staining solution (100 μg/mL of RNAse A (Roche, 10109169001) and 50 μg/mL propidium iodide (Life Technologies™, P1304MP), diluted in PBS, and incubated for 10 minutes at room temperature. Cell cycle data was acquired by flow cytometry on a Guava® easyCyte™ flow cytometer (Millipore™) using the InCyte™ software. Data was analyzed using FlowJo®. N=3 biological replicates were used for each treatment condition.

[2] = test system: MOLT4 cells (parental, wild type); experiment: CellTiter-Glo cell viability, 72 hours; type: cell-based; details: Homo sapiens, MOLT-4, 72 hours, read-out: Antiproliferative IC50
Description: The indicated cell lines were plated in flat bottom 384-well plates (Corning® cat #3570). MOLT4 cells were plated at a density of 3,000 cells per well in 50 μL media, while OVCAR8, COV362, and Kuramochi cells were plated at a density of 750 cells per well in 50 μL media. Cells were treated the next day (except for MOLT4 cells, which were treated the same day as plating) with 0.1 μL of the indicated compounds in a four-fold dilution series using the Janus pinner. Cells were incubated with compounds for 72 hours at 37° C. 5% CO2. Anti-proliferative effects were then assessed by CellTiter-Glo® Luminescent Cell Viability Assay (Promega™ cat #G7570) according to the manufacturer's standards, measuring luminescence using an EnVision® plate-reader. IC50 values were determined using a non-linear regression curve fit in GraphPad Prism 8. N=4 biological replicates were used for each treatment condition.
MOLT4 cells were plated in a 384-well plate at 5,000 cells per well in 50 μL media (RPMI+10% FBS+1% Penn/Strep) and treated with 0.1 μL of the candidate compounds in four-fold dilution series using the Janus pinner. Cells were incubated with compounds for 72 hours at 37° C. 5% CO2. Anti-proliferative effects of these compounds were assessed 72 hours after compound addition using CellTiter-Glo® (Promega, cat #G7571). All proliferation assays were performed in biological quadruplicate. […] Effects upon cell viability for compound 13 in the MOLT4 WT cells are therefore likely driven in part by Wee1 inhibition, and in part by CRBN-mediated Wee1 degradation. […] Degradation of Wee1 with compound 21 was mediated by VHL.

[3] = test system: 300 suspension and hematopoietic cancer cell lines; experiment: PRISM pooled cytotoxicity assay; type: cell-based
PLK1 = PLK1 (Homo sapiens, UniProt P53350); experiment: Z′-LYTE kinase activity assay for PLK1; type: biochemical; design: purchased Life Technologies (Invitrogen) commercial assay service; details: Km ATP, average of two replicates ± SD
Sequence of PLK1 (P53350 whole entry): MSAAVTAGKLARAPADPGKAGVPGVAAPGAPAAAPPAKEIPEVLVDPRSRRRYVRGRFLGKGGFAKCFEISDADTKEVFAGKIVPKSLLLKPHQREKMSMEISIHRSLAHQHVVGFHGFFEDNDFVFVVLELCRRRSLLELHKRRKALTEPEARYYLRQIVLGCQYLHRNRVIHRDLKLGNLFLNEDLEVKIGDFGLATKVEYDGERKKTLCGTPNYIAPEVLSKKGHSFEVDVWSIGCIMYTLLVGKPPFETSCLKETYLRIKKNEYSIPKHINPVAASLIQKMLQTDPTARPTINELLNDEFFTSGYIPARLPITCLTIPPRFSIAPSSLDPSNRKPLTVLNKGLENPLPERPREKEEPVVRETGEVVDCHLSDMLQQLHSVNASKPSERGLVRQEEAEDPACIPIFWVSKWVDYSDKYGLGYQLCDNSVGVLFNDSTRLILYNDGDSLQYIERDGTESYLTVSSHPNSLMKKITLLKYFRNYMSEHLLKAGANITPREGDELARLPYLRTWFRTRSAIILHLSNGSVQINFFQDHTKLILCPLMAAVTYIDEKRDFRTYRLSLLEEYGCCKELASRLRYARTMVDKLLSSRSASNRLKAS
Description: as §1
The selectivity of Wee1 degradation was then assessed by performing multiplexed mass spectrometry (MS)-based proteomics in MOLT4 cells treated with 100 nM of compound 13 for 2 hours (Donovan et al., Elife 7:e38430 (2018)).

Wee1 [4] = target: T1, Wee1; experiment: Cellular degradation of Wee1 by immunoblot, 6-hour treatment of MOLT4 cells; type: cell-based; design: endogenous in cells; host or cells: MOLT4 (wild type; CRBN-/- as control); details: for Wee1 degradation / percent Wee1 degradation at 1 µM: MOLT4 cells; for Wee1 degradation: immunoblot; for percent Wee1 degradation at 1 µM: MOLT-4, 1 μM, approximated by immunoblot, read-out: Extent of Degradation of Wee1
Description: General Protocol: HT-29, MOLT4 wild type (WT) or CRBN^-/- cells were plated in a 6 well plate and treated for 6 hours with the indicated concentrations of the inventive compounds and control. HT-29 cells were cultured in McCoy's Media supplemented with 10% FBS and 1% Penicillin/Streptomycin. MOLT4 WT and CRBN^-/- cells were cultured in Roswell Park Memorial Institute (RPMI) medium supplemented with 10% FBS and 1% Penicillin/Streptomycin. Mycoplasma testing was performed every month and all lines were negative. Immunoblotting: Cells were washed with phosphate-buffered saline (PBS) and then lysed using radioimmunoprecipitation assay (RIPA) buffer supplemented with protease and phosphatase inhibitor cocktail (Roche) on ice for 15 minutes. The lysates were centrifuged at 14,000 rpm for 15 minutes at 4° C. and protein was quantified by bicinchoninic acid (BCA) assay (PierceTM). Primary antibodies used include: Wee1 ([…]) (Cell Signaling Technology®, 13084S), polo-like kinase 1 (PLK1) (Thermo Fisher Scientific, 37-7000), phosphor-cdc2 (Y15) (10A11) (Cell Signaling Technology®, […]), phospho-histone H3 ([…]) (Cell Signaling Technology®, […]), Ikaros ([…]) (Cell Signaling Technology®, 14859S), Aiolos ([…]) (Cell Signaling Technology®, 15103), casein kinase 1 alpha (Abcam®, 108296), β-actin (Cell Signaling Technology®, 8H10D10). FIG. 2A is an immunoblot showing that compound 13 degraded Wee1 after a 6-hour treatment in MOLT4 cells, and induced the downstream changes expected from Wee1 loss-including a decrease in phosphorylated cyclin-dependent kinase 1 (pCDK1) (Y15) and an increase in pH 3. […] Degradation of Wee1 by compound 13 was rescued in MOLT4 CRBN^-/- cells. MOLT4 WT and CRBN^-/- cells were plated in a 6-well plate at 2.25 million cells per well in 3 mL media (RPMI+10% FBS+1% Penn/Strep). After treatment with the indicated concentrations of candidate compounds, cells were incubated for 6 hours at 37° C. 5% CO2. To harvest, the cells were washed 1× with cold PBS, then collected by centrifugation. Cell pellets were lysed in RIPA buffer with protease and phosphatase inhibitors (Roche). Lysates were clarified by centrifugation, and protein concentrations were normalized using a BCA assay (Thermo ScientificTM). The samples were diluted with 4×LDS+10% β-mercaptoethanol, and were boiled at 95° C. for 5 minutes. Proteins of interest were then assessed by western blotting. […] The experimental protocol was the same as in Example 28.

T1 sequence (P30291 whole entry): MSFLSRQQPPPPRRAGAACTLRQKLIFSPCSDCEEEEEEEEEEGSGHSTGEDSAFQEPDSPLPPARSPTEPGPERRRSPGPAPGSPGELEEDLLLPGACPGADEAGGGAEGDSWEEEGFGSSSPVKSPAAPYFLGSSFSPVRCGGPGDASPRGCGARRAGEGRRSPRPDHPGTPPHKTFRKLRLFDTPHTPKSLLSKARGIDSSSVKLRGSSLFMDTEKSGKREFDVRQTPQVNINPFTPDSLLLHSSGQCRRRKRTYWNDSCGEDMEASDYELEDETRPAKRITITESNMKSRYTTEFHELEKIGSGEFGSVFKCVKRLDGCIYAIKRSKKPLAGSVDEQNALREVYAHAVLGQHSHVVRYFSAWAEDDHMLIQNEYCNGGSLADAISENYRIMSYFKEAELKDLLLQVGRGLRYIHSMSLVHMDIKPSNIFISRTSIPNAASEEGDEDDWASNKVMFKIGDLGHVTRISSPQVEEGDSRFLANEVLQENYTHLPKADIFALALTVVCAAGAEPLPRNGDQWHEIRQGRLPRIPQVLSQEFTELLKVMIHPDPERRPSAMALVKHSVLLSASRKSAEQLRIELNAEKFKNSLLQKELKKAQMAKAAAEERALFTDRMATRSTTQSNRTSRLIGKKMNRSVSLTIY

SMILES	IC50 (Wee1 [1])	G2-M cells (MOLT4 cells; 100 nM, 24-hr treatment, MOLT4 cells, control 19%)	Cell cycle effects in CRBN−/− cells (MOLT4 cells; CRBN−/− MOLT4 cells, 24 hours)	Fold lower doses than AZD1775 inducing premature mitotic entry (MOLT4 cells; MOLT4 cells)	IC50 [2]	IC50 ([3]; almost all of the lines tested, data not shown, read-out: IC50 values in PRISM panel)	IC50 (PLK1)	Wee1 degradation in CRBN−/− cells (Wee1 [4]; MOLT4 CRBN−/− cells)	Wee1 degradation (Wee1 [4])	percent Wee1 degradation at 1 µM (Wee1 [4])	Effect on the cell cycle (MOLT4 cells; 100 nM, 24-hr, MOLT4 cells)	Potency in PRISM panel relative to compound 13 [3]
C=CCn1c(=O)c2cnc(Nc3ccc(N4CCN(CCCNc5cccc6c5C(=O)N(C5CCC(=O)NC5=O)C6=O)CC4)cc3)nc2n1-c1cccc(C(C)(C)O)n1 (centres unmarked) [Compound 13, 4-((3-(4-(4-((2-allyl-1-(6-(2-hydroxypropan-2-yl)pyridin-2-yl)-3-oxo-2,3-dihydro-1H-pyrazolo[3,4-d]pyrimidin-6-yl)amino)phenyl)piperazin-1-yl)propyl)amino)-2-(2,6-dioxopiperidin-3-yl)isoindoline-1,3-dione]	3.58 ± 0.36 nM	34%	absent	10 fold	390 nM	< 1000 nM	102 nM	rescued	degraded Wee1	> 50%	–	–
C=CCn1c(=O)c2cnc(Nc3ccc(N4CCN(CCCNc5cccc6c5C(=O)N(C5CCC(=O)N(C)C5=O)C6=O)CC4)cc3)nc2n1-c1cccc(C(C)(C)O)n1 (centres unmarked) [Compound 20, 4-((3-(4-(4-((2-allyl-1-(6-(2-hydroxypropan-2-yl)pyridin-2-yl)-3-oxo-2,3-dihydro-1H-pyrazolo[3,4-d]pyrimidin-6-yl)amino)phenyl)piperazin-1-yl)propyl)amino)-2-(1-methyl-2,6-dioxopiperidin-3-yl)isoindoline-1,3-dione]	7.38 ± 0.47 nM	–	–	–	4560 nM	–	43 ± 4 nM	–	did not degrade Wee1	< 25%	did not appreciably affect the cell cycle	uniformly less potent
